Assay results as given in US9428508B2, “2,4-diamino-6,7-dihydro-5H-pyrrolo[2,3]pyrimidine derivatives as FAK/Pyk2 inhibitors” (Centaurus BioPharma Co., Ltd., priority 2011, dated 2016).

Key:
FAK = FAK (Homo sapiens (Human), UniProt Q05397); assay: Biochemical assay for FAK activity (LANCE TR-FRET, ULight-poly Glu,Ala,Tyr substrate); conditions: GST-tagged FAK, 120 min reaction
How it was run: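 GST-tagged FAK (2.5 nM working stock) with ULight-poly Glu,Ala,Tyr (666 nM stock) and ATP (33.3 μM stock) in Tris pH 7.5/MgCl2/DTT/CHAPS buffer with BSA, 120 min; EDTA-quenched. Phosphorylation read by TR-FRET with Eu-anti-phosphotyrosine (PY20) antibody after 60 min. Compounds tested as 12-point 3-fold dilutions.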

PYK2 = PYK2 (Homo sapiens (Human), UniProt Q14289); assay: Biochemical assay for PYK2 activity (LANCE TR-FRET, ULight-poly Glu,Ala,Tyr substrate); conditions: GST-tagged PYK2, 40 min reaction
Sequence of PYK2 (Q14289 whole entry): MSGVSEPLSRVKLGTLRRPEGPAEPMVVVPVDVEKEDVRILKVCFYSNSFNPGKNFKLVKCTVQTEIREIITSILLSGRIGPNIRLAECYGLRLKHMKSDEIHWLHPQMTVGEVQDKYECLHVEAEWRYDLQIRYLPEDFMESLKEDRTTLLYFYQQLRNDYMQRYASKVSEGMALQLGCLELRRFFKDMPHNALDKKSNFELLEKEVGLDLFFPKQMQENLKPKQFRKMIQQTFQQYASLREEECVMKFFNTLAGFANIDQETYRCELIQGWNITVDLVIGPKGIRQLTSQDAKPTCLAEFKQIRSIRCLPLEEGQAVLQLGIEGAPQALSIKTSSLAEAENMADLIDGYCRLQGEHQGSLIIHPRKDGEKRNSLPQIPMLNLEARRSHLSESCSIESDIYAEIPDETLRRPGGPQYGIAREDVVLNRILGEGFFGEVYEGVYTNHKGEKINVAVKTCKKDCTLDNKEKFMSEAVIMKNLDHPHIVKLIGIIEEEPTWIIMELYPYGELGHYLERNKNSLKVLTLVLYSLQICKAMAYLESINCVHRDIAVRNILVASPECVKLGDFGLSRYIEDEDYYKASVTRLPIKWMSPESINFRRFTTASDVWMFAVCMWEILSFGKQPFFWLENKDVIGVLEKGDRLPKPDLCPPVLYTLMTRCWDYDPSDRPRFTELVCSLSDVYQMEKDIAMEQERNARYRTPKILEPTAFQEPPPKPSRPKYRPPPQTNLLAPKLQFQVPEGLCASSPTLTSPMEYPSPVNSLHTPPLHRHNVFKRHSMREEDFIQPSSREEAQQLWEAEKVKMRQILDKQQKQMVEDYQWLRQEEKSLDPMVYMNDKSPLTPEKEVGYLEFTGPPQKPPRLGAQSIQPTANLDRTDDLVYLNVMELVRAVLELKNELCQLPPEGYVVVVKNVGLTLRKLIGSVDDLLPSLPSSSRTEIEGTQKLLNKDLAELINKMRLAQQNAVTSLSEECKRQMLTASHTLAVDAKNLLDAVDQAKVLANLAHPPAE
How it was run: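 GST-tagged human PYK2 (2 nM working stock) with ULight-poly Glu,Ala,Tyr (1:1:1) peptide (666 nM working stock) and ATP (46.6 μM working stock) in 40 mM Tris pH 7.5, MgCl2, 1 mM DTT, 1 mM CHAPS; 40 min reaction, EDTA quench. Phosphotyrosine read by LANCE Eu-anti-phosphotyrosine (PY20) TR-FRET after 60 min; 12-point 3-fold compound dilutions.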

Sequence of FAK (Q05397 whole entry): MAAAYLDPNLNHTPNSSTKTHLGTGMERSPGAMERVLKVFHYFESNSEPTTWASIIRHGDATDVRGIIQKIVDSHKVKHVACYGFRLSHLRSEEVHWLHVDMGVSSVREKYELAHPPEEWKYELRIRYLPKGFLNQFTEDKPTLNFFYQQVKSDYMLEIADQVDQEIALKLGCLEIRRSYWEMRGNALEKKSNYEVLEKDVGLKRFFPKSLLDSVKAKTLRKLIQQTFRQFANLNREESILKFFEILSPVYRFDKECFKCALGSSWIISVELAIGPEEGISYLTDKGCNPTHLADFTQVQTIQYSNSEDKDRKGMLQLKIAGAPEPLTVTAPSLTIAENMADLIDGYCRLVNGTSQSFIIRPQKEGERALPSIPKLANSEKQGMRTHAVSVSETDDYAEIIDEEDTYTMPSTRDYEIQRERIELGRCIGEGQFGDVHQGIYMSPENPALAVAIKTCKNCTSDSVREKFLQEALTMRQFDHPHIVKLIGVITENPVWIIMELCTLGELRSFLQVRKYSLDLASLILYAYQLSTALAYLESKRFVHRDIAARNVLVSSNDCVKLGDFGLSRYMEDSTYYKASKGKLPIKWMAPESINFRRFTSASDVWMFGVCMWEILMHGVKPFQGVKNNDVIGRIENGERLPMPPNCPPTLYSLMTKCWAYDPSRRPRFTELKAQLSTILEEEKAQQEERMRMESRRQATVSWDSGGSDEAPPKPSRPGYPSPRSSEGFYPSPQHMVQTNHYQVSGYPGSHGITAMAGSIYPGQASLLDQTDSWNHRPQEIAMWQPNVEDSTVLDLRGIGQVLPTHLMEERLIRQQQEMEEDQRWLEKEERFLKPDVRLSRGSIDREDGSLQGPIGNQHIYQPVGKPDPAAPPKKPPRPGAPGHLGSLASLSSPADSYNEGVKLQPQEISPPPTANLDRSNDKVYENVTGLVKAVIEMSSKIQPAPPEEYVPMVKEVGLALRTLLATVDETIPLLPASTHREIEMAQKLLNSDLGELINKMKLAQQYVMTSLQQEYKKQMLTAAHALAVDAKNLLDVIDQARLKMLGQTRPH

Structure (SMILES) | IC50 (FAK) [nM] | IC50 (PYK2) [nM]
COc1cc(N2CCC(N(C)C)C2)ccc1Nc1nc2c(c(Nc3ccccc3S(=O)(=O)NC(C)C)n1)CCN2 (centres unmarked) [Example 89, 2-(2-(4-(3-(dimethylamino)pyrrolidin-1-yl)-2-methoxyphenylamino)-6,7-dihydro-5H-pyrrolo[2,3-d]pyrimidin-4-ylamino)-N-isopropylbenzenesulfonamide] | < 20 | < 20
COc1cc(-n2cc(C)nc2C)ccc1Nc1nc2c(c(Nc3ccccc3S(=O)(=O)NC(C)C)n1)CCN2 [Example 90, 2-(2-(4-(2,4-dimethyl-1H-imidazol-1-yl)-2-methoxyphenylamino)-6,7-dihydro-5H-pyrrolo[2,3-d]pyrimidin-4-ylamino)-N-isopropylbenzenesulfonamide] | < 20 | < 20
Cc1csc(Nc2nc3c(c(Nc4ccccc4S(=O)(=O)NC(C)C)n2)CCN3)n1 [Example 91, N-isopropyl-2-(2-(4-methylthiazol-2-ylamino)-6,7-dihydro-5H-pyrrolo[2,3-d]pyrimidin-4-ylamino)benzenesulfonamide] | > 1000 | < 1000
COc1cc(N2CCC(N3CCCCC3)CC2)ccc1Nc1nc2c(c(Nc3ccccc3S(=O)(=O)NC(C)C)n1)CCN2 [Example 92, 2-(2-(4-(1,4′-bipiperidin-1′-yl)-2-methoxyphenylamino)-6,7-dihydro-5H-pyrrolo[2,3-d]pyrimidin-4-ylamino)-N-isopropylbenzenesulfonamide] | < 20 | < 20
COc1cc(N2CCC(N3CCCC3)CC2)ccc1Nc1nc2c(c(Nc3ccccc3S(=O)(=O)NC(C)C)n1)CCN2 [Example 93, N-isopropyl-2-(2-(2-methoxy-4-(4-(pyrrolidin-1-yl)piperidin-1-yl)phenylamino)-6,7-dihydro-5H-pyrrolo[2,3-d]pyrimidin-4-ylamino)benzenesulfonamide] | < 20 | < 20
COc1cc(-n2cccn2)ccc1Nc1nc2c(c(Nc3ccccc3S(=O)(=O)NC(C)C)n1)CCN2 [Example 94, N-isopropyl-2-(2-(2-methoxy-4-(1H-pyrazol-1-yl)phenylamino)-6,7-dihydro-5H-pyrrolo[2,3-d]pyrimidin-4-ylamino)benzenesulfonamide] | < 50 | < 200
COc1cc(N2CCC(N3CCN(C)CC3)CC2)ccc1Nc1nc2c(c(Nc3ccccc3S(=O)(=O)NC(C)C)n1)CCN2 [Example 96, N-isopropyl-2-(2-(2-methoxy-4-(4-(4-methylpiperazin-1-yl)piperidin-1-yl)phenylamino)-6,7-dihydro-5H-pyrrolo[2,3-d]pyrimidin-4-ylamino)benzenesulfonamide] | < 20 | < 20
COc1cc(N2CCC(N3CCNCC3)CC2)ccc1Nc1nc2c(c(Nc3ccccc3S(=O)(=O)NC(C)C)n1)CCN2 [Example 97, N-isopropyl-2-(2-(2-methoxy-4-(4-(piperazin-1-yl)piperidin-1-yl)phenylamino)-6,7-dihydro-5H-pyrrolo[2,3-d]pyrimidin-4-ylamino)benzenesulfonamide] | < 100 | < 500
COc1cc(N2CCOCC2)ccc1Nc1nc2c(c(Nc3ccccc3S(=O)(=O)NC3CCCC3)n1)C(C)(C)CN2 [Example 108, N-cyclopentyl-2-(2-(2-methoxy-4-morpholinophenylamino)-5,5-dimethyl-6,7-dihydro-5H-pyrrolo[2,3-d]pyrimidin-4-ylamino)benzenesulfonamide] | < 200 | < 500
COc1cc(N2CCOCC2)ccc1Nc1nc2c(c(Nc3ccccc3S(=O)(=O)NC3CCCCC3)n1)C(C)(C)CN2 [Example 109, N-cyclohexyl-2-(2-(2-methoxy-4-morpholinophenylamino)-5,5-dimethyl-6,7-dihydro-5H-pyrrolo[2,3-d]pyrimidin-4-ylamino)benzenesulfonamide] | < 200 | < 200

Other lines, results leading:

IC50 (FAK) [nM] | IC50 (PYK2) [nM] | Structure (SMILES)
< 20 | < 50 | COc1cc(N2CCOCC2)ccc1Nc1nc2c(c(Nc3ccccc3S(=O)(=O)C(C)C)n1)CCN2 [Example 100, N^4-(2-(isopropylsulfonyl)phenyl)-N^2-(2-methoxy-4-morpholinophenyl)-6,7-dihydro-5H-pyrrolo[2,3-d]pyrimidine-2,4-diamine]
< 20 | < 20 | COc1cc(N2CCOCC2)ccc1Nc1nc2c(c(Nc3ccccc3S(=O)(=O)NC(C)C)n1)C(C)CN2 (centres unmarked) [Example 101, N-isopropyl-2-(2-(2-methoxy-4-morpholinophenylamino)-5-methyl-6,7-dihydro-5H-pyrrolo[2,3-d]pyrimidin-4-ylamino)benzenesulfonamide]
< 20 | < 50 | CNC(=O)c1ccccc1Nc1nc(Nc2ccc(N3CCOCC3)cc2OC)nc2c1[C@@H](C)CN2 [Example 102, (R)-2-(2-(2-methoxy-4-morpholinophenylamino)-5-methyl-6,7-dihydro-5H-pyrrolo[2,3-d]pyrimidin-4-ylamino)-N-methylbenzamide]
< 20 | < 20 | CNS(=O)(=O)c1ccccc1Nc1nc(Nc2ccc(N3CCOCC3)cc2OC)nc2c1C(C)(C)CN2 [Example 103, 2-(2-(2-methoxy-4-morpholinophenylamino)-5,5-dimethyl-6,7-dihydro-5H-pyrrolo[2,3-d]pyrimidin-4-ylamino)-N-methylbenzenesulfonamide]
< 20 | < 20 | COc1cc(N2CCOCC2)ccc1Nc1nc2c(c(Nc3ccccc3S(=O)(=O)NC3CCC3)n1)C(C)(C)CN2 [Example 104, N-cyclobutyl-2-(2-(2-methoxy-4-morpholinophenylamino)-5,5-dimethyl-6,7-dihydro-5H-pyrrolo[2,3-d]pyrimidin-4-ylamino)benzenesulfonamide]
< 20 | < 20 | COc1cc(N2CCOCC2)ccc1Nc1nc2c(c(Nc3ccccc3S(=O)(=O)NC(C)C)n1)C(C)(C)CN2 [Example 105, N-isopropyl-2-(2-(2-methoxy-4-morpholinophenylamino)-5,5-dimethyl-6,7-dihydro-5H-pyrrolo[2,3-d]pyrimidin-4-ylamino)benzenesulfonamide]
< 20 | < 20 | CCCNS(=O)(=O)c1ccccc1Nc1nc(Nc2ccc(N3CCOCC3)cc2OC)nc2c1C(C)(C)CN2 [Example 106, 2-(2-(2-methoxy-4-morpholinophenylamino)-5,5-dimethyl-6,7-dihydro-5H-pyrrolo[2,3-d]pyrimidin-4-ylamino)-N-propylbenzenesulfonamide]
< 20 | < 20 | COc1cc(N2CCOCC2)ccc1Nc1nc2c(c(Nc3ccccc3S(=O)(=O)NCC(C)C)n1)C(C)(C)CN2 [Example 107, N-isobutyl-2-(2-(2-methoxy-4-morpholinophenylamino)-5,5-dimethyl-6,7-dihydro-5H-pyrrolo[2,3-d]pyrimidin-4-ylamino)benzenesulfonamide]
< 20 | < 20 | CCCCNS(=O)(=O)c1ccccc1Nc1nc(Nc2ccc(N3CCOCC3)cc2OC)nc2c1C(C)(C)CN2 [Example 110, N-butyl-2-(2-(2-methoxy-4-morpholinophenylamino)-5,5-dimethyl-6,7-dihydro-5H-pyrrolo[2,3-d]pyrimidin-4-ylamino)benzenesulfonamide]
